Several values for one entry are separate records, joined by “and”; a condition that tells them apart may be missing. Equal values may be shown once. Entries after “also recorded” stand apart in the source; their conditions may differ.
Tests used:
children with ASD [1] = test: Adaptive Behavior Assessment System-II (ABAS-II), 12-week open label trial; assay type: in vivo, human; settings: sodium benzoate 250 to 500 mg/day, 12 weeks, c2-c7 = child A-F
Description: (§1) Six children with ASD were treated with 250 to 500 mg/day of sodium benzoate for 12 weeks. At the baseline and the final (12 weeks) visit, the assessments of receptive and expressive vocabulary test (REVT), core vocabularies gained in the core vocabulary communication system, Chinese child developmental inventory, adaptive behavior assessment system-II (ABAS-II), parenting stress index (PSI), clinical global impression-improvement scale (CGI-I) were arranged.
(§2) This study was a twelve-week open label trial with the aim of gaining experience with sodium benzoate for the treatment of non-communicative children with ASDs. The participants were a convenient sample of outpatients children recruited from the Department of Pediatrics, Kaohsiung Medical University Hospital, Taiwan.
(§3) Six children, including five boys and 1 child with ages between 3-year-7-month to 9-year-10-month old, were assigned to receive a 12-week treatment of sodium benzoate. For children with a body weight equal or more than 15 kg, benzoate was given with 500 mg/day. […]
The ABAS-II is an individually administered, norm-referenced measure of adaptive behaviors (Harrison and Oakland, 2003). […] A Global Adaptive Composite (GAC) score is calculated from all nine skill area scores and presented as a norm-referenced standard score. Results were recorded by the pre- and post-GAC score and Social score.

children with ASD [2] = test: Parenting Stress Index-Chinese version (PSI), 12-week open label trial; assay type: in vivo, human; settings: sodium benzoate 250 to 500 mg/day, 12 weeks; * = above 85 percentile; c2-c7 = child A-F; Pre-Tx A-F: 70, 97.5, 99, 99, 69, 50
Description: as §1, §2
as §3, with “mg/day. For children with a body weight less than 15 kg, benzoate was given with 250 mg/day.” for “mg/day.”
Primary caregiver filled out the Chinese version of the parenting stress index (Wen, 2003) which was a validated Chinese version of the original questionnaire developed by Abdin (Abidin, 1986) that measured aspects of parental functioning. […]

children with ASD [3] = test: Clinical Global Impression-Improvement Scale (CGI-I) and clinicians' conclusion, 12-week open label trial; assay type: in vivo, human; settings: for Clinicians' conclusion on improvement of the individual child (text): after 12 weeks, b64-b69 = child A-F in order
Description: as §1, §2
(§4) Six children, including five boys and 1 child with ages between 3-year-7-month to 9-year-10-month old, were assigned to receive a 12-week treatment of sodium benzoate. For children with a body weight equal or more than 15 kg, benzoate was given with 500 mg/day. For children with a body weight less than 15 kg, benzoate was given with 250 mg/day. Sodium benzoate was provided by Excelsior Pharmatech Labs (Taiwan).
(§5) All the children entering this study also started to receive communication training using the Core Vocabulary Communication System—Chinese version (the Unlimiter Assistive Technology Engineering Lab, Taiwan). Parents were required to teach their children 40 minutes per day at home using this System. During the 12-week period, the parents were required to bring children back the hospital every 2 weeks. At the baseline and the final (12 weeks) visit, the following assessments were arranged.
The CGI-I is an observer-rated scale that measures the global improvement of illness as compared to condition at admission to the trial (Guy, 1976).

children with ASD [4] = test: Safety observations (activity level, sleep) in the 12-week open label trial; assay type: in vivo, human; settings: for Sleep: child C first 3 days of benzoate usage, child D, child E; for Activity level (untoward activating effect): child D at final assessment, child E in the first two weeks, returned to baseline one month later
Excerpt: The present disclosure examined the efficacy and safety of sodium benzoate, a D-amino acid oxidase inhibitor, for the treatment of an autism spectrum disorder.
as §2, §4, §5

[5] = test system: early-phase Alzheimer disease; settings: prior trial; cited from earlier work
schizophrenia = settings: prior trial; cited from earlier work

## O=C([O-])c1ccccc1.[Na+] [sodium benzoate]
Children with ASD [1]; Pre-Tx A-F: 71, 51, 57, 61, 46, 45
  ABAS-S: Parental reported Social Score, Post-Tx: 77 and 51 and 50 and 44 and 46 and 45
Children with ASD [1]; Pre-Tx A-F: 77, 60, 47, 53, 50, 58
  ABAS-GCS: Parental reported General Adaptive Composite Score, Post-Tx: 77 and 61 and 46 and 49 and 53 and 57
Children with ASD [2]
  PSI % (parenting stress index, derived raw-to-percentile score), Post-Tx: 62% and 93* % and 99* % and 99.9* % and 75% and 72%
Children with ASD [3]
  Clinicians' conclusion on improvement of the individual child (text): much improved; also recorded: no improvement; also recorded: minimally improved
Children with ASD [3]; listed as benzoate
  Clinicians' conclusion on improvement of the individual child (text): minimal improvement
Children with ASD [3]; six children, 12 weeks
  Overall effect in teaching of communication skill as observed by the parents and clinicians: beneficial effects
Children with ASD [3]; six children, 12 weeks, child A, B, E
  Participants judged to be much improved: Half of the participants
Children with ASD [3]; sodium benzoate 250 to 500 mg/day, 12 weeks, c2-c7 = child A-F
  CGI: Clinical Global Impression-Improvement: much ((2) much improved); also recorded: mini-; also recorded: nil ((4) no change)
Children with ASD [4]
  Sleep: sleep pattern was unaltered
  Activity level (untoward activating effect): activity level became even higher; also recorded: activity level increased
Children with ASD [4]; listed as benzoate
  Sleep: not able to fall asleep at their usual sleep time
Children with ASD [4]; listed as benzoic acid salt
  Activity level (untoward activating effect): untoward activating effect
[5]
  Clinical symptoms, neurocognitive ability and quality of life: Significant improvements
schizophrenia
  Clinical symptoms, neurocognitive ability and quality of life: Significant improvements

Source: patent publication US10987327B2, “Method for preventing or treating autism spectrum disorders by benzoic acid salt” (EXCELSIOR PHARMATECH LABS, priority 2017, dated 2021)
